The subject of the experiment is E coli O157:H7. The experiment is described as follows: Effect of pH on Concrobium activity, lysis under light microscope (Example 5). The format is cell-based. To be noted: one million CFU. How it is done:
One million CFU of E coli O157:H7 were incubated with the following and samples of each were observed under a light microscope:
1. 1 mL of Concrobium, normal saline and 0.1 N (normal) sodium hydroxide 2. 1 mL of Concrobium and normal saline 3. 1 mL normal saline

Take `[Na+].[OH-]` [sodium hydroxide]: the “lysing effect on E coli in suspension” value is “lysed the E. coli in suspension”.

These data come from patent US20090074878A1, “Non-Toxic Water Soluble Inorganice Antimicrobal Polymer and Related Methods” (priority 2005, published 2009).
